Activity calls are given as the source filed them. The calls are words filed in the database; no cut-off is given here.
Assays:
MIA PaCa-2 [1] = assay: Growth inhibition of human MIAPaCa2 cells at 10 uM after 72 hrs by MTT assay relative to control; format: functional; settings: for inhibition of growth at 10 µM: MIA PaCa-2, 72 h, read-out: GI
MIA PaCa-2 [2] = assay: Growth inhibition of human MIAPaCa2 cells at 4 uM after 72 hrs by MTT assay relative to control; format: functional; settings: MIA PaCa-2, 72 h, read-out: GI
[3] = Growth inhibition of human HuCCT1 cells at 4 uM after 72 hrs by MTT assay relative to control; format: functional; settings: HuCCT-1, 72 h, read-out: GI
[4] = (§1) Growth inhibition of human HuCCT1 cells at 10 uM after 72 hrs by MTT assay relative to control; format: functional; settings: HuCCT-1, 72 h, read-out: GI
HuCCT-1 [5] = assay: (§2) Cytotoxicity against human HuCCT1 cells after 72 hrs by MTT assay; format: functional, cell-based
Nucleic Acid = assay: Ratio of drug level in human MIAPaCa2 cells to human HuCCT1 cells at 30 mins; format: ADME, cell-based; settings: mia paca-2, 0.5 h
[6] = Downregulation of K-ras in human HuCCT1 cells at 2 uM after 72 hrs by agarose gel electrophoresis; format: functional, cell-based; settings: HuCCT-1
MIA PaCa-2 [7] = assay: Inhibition of Akt phosphorylation in human MIAPaCa2 cells assessed as effect on […] at 10 uM after 48 hrs by immunoblotting; format: cell-based
[8] = Downregulation of N-ras in human HuCCT1 cells at 2 uM after 72 hrs by agarose gel electrophoresis; format: functional, cell-based; settings: HuCCT-1
[9] = Growth inhibition of human HuCCT1 cells at 1 uM after 72 hrs by MTT assay relative to control; format: functional; settings: HuCCT-1, 72 h, read-out: GI
[10] = as §2; format: functional, cell-based; settings: HuCCT-1, 72 h
HuCCT-1 [11] = assay: Induction of apoptosis in human HuCCT1 cells after 72 hrs; format: functional, cell-based
MIA PaCa-2 [12] = assay: Induction of apoptosis in human MIAPaCa2 cells after 72 hrs; format: functional, cell-based
MIA PaCa-2 [13] = assay: Growth inhibition of human MIAPaCa2 cells at 1 uM after 72 hrs by MTT assay; format: functional; settings: MIA PaCa-2, 72 h, read-out: GI
MIA PaCa-2 [14] = assay: Downregulation of K-ras in human MIAPaCa2 cells at 10 uM after 72 hrs by agarose gel electrophoresis; format: functional, cell-based
MIA PaCa-2 [15] = assay: Cellular uptake in human MIAPaCa2 cells at 10 uM up to 30 mins by HPLC analysis; format: ADME, cell-based; settings: mia paca-2, 0.5 h
MIA PaCa-2 [16] = assay: Inhibition of ERK phosphorylation in human MIAPaCa2 cells assessed as reduction in phospho-ERK levels at 10 uM after 48 hrs by immunoblotting; format: cell-based
[17] = Downregulation of K-ras in human HuCCT1 cells at 6 uM after 72 hrs by agarose gel electrophoresis; format: functional, cell-based; settings: HuCCT-1
HuCCT1 [18] = assay: Inhibition of ERK phosphorylation in human HuCCT1 cells assessed as reduction in phospho-ERK levels at 2 uM after 48 hrs by immunoblotting; format: cell-based
[19] = Downregulation of H-ras in human HuCCT1 cells at 2 uM after 72 hrs by agarose gel electrophoresis; format: functional, cell-based; settings: HuCCT-1
HuCCT1 [20] = assay: Inhibition of Akt phosphorylation in human HuCCT1 cells assessed as reduction in phospho-Akt levels at 2 uM after 48 hrs by immunoblotting; format: cell-based
[21] = Cellular uptake in human HuCCT1 cells at 10 uM measured after 30 mins up to 60 mins; format: ADME, cell-based; settings: hucct-1, 10 µM
[22] = Cellular uptake in human HuCCT1 cells at 10 uM up to 30 mins by HPLC analysis; format: ADME, cell-based; settings: hucct-1, 0.5 h
MIA PaCa-2 [23] = assay: Downregulation of K-ras in human MIAPaCa2 cells at 7 uM after 72 hrs by agarose gel electrophoresis; format: functional, cell-based
MIA PaCa-2 [24] = assay: Cytotoxicity against human MIAPaCa2 cells after 72 hrs by MTT assay; format: functional, cell-based; settings: MIA PaCa-2, 72 h
HuCCT1 [25] = assay: Inhibition of Akt phosphorylation in human HuCCT1 cells assessed as reduction in phospho-Akt levels at 6 uM after 48 hrs by immunoblotting; format: cell-based
HuCCT1 [26] = assay: Inhibition of ERK phosphorylation in human HuCCT1 cells assessed as reduction in phospho-ERK levels at 6 uM after 48 hrs by immunoblotting; format: cell-based
[27] = Downregulation of H-ras in human HuCCT1 cells at 6 uM after 72 hrs by agarose gel electrophoresis; format: functional, cell-based; settings: HuCCT-1
HuCCT-1 [28] = assay: as §1; format: functional
MIA PaCa-2 [29] = assay: Inhibition of Akt phosphorylation in human MIAPaCa2 cells assessed as effect on […] at 7 uM after 48 hrs by immunoblotting; format: cell-based
MIA PaCa-2 [30] = assay: Inhibition of ERK phosphorylation in human MIAPaCa2 cells assessed as reduction in phospho-ERK levels at 7 uM after 48 hrs by immunoblotting; format: cell-based

CC1=C(/C=C/C(C)=C/C=C/C(C)=C/C(=O)O)C(C)(C)CCC1 [TRETINOIN]
inhibition of growth at 10 µM (MIA PaCa-2 [1]): 18% | inhibition of growth at 4 µM (MIA PaCa-2 [2]): 15% | inhibition of growth at 4 µM [3]: 17% | inhibition of growth at 10 µM [4]: 28%

CCCCCCCCCCNc1ccc(O)cc1
inhibition of growth at 10 µM (MIA PaCa-2 [1]): 55% | growth inhibition (GI) (HuCCT-1 [5]): Dose-dependent effect | inhibition of growth at 4 µM [3]: 82%

CCCCCCCCCC(=O)Nc1ccc(O)cc1
inhibition of growth at 10 µM (MIA PaCa-2 [1]): 0% | growth inhibition (GI) (HuCCT-1 [5]): Dose-dependent effect | inhibition of growth at 4 µM [3]: 23%

CCCCCCCCCCCCNc1ccc(O)cc1
Ratio (Nucleic Acid): 1.8 | inhibition of growth at 10 µM (MIA PaCa-2 [1]): 50% | Activity [6]: Active | inhibition (MIA PaCa-2 [7]): inactive | inhibition of growth at 4 µM (MIA PaCa-2 [2]): 45% | Activity [8]: Active | inhibition of growth at 1 µM [9]: 35% | growth inhibition (GI) (HuCCT-1 [5]): Dose-dependent effect | IC50 [10]: 2 µM | inhibition of growth at 4 µM [3]: 82% | inhibition of growth at 10 µM [4]: 84% | Activity (HuCCT-1 [11]): inactive | Activity (MIA PaCa-2 [12]): inactive | inhibition of growth at 1 µM (MIA PaCa-2 [13]): 20% | Activity (MIA PaCa-2 [14]): Active | Drug uptake (MIA PaCa-2 [15]): Active | inhibition (MIA PaCa-2 [16]): 50% | Activity [17]: Active | inhibition (HuCCT1 [18]): 21% | Activity [19]: Active | inhibition (HuCCT1 [20]): 20% | Drug uptake [21]: Not Active | Drug uptake [22]: Active | Activity (MIA PaCa-2 [23]): Active | IC50 (MIA PaCa-2 [24]): 10 µM

CCCCCCCCCCCC(=O)Nc1ccc(O)cc1
inhibition of growth at 10 µM (MIA PaCa-2 [1]): 0% | growth inhibition (GI) (HuCCT-1 [5]): Dose-dependent effect | inhibition of growth at 4 µM [3]: 23%

CC1=C(/C=C/C(C)=C/C=C/C(C)=C/C(=O)Nc2ccc(O)cc2)C(C)(C)CCC1 [FENRETINIDE]
growth inhibition (GI) (MIA PaCa-2 [1]): Active | Activity [6]: Active | inhibition (HuCCT1 [25]): inactive | inhibition of growth at 4 µM (MIA PaCa-2 [2]): 8% | inhibition (HuCCT1 [26]): inactive | Activity [27]: Active | growth inhibition (GI) (HuCCT-1 [5]): Dose-dependent effect | IC50 [10]: 6 µM | inhibition of growth at 4 µM [3]: 17% | growth inhibition (GI) (HuCCT-1 [28]): Active | inhibition (MIA PaCa-2 [29]): 30% | Activity (HuCCT-1 [11]): inactive | Activity (MIA PaCa-2 [12]): inactive | inhibition (MIA PaCa-2 [30]): inactive | Activity (MIA PaCa-2 [14]): Active | Activity [17]: Active | Activity (MIA PaCa-2 [23]): Active | IC50 (MIA PaCa-2 [24]): 7 µM

— ChEMBL document CHEMBL2010790, “Growth inhibition and mechanism of action of p-dodecylaminophenol against refractory human pancreatic cancer and cholangiocarcinoma” (Bioorg Med Chem, 2012)
